The record followed here is patent publication US20100168079A1 (priority 2008, published 2010).

The target in this assay is T1, human S1P1 receptors (Homo sapiens, UniProt P21453).
T1 construct: myc (N); expressed in transfected cells; host or cells: HeLa (human cervix carcinoma, ATCC CCL2), HeLa-S1P1/Gα16 cell clone 1
Nature of the assay: Human S1P1 Receptor Calcium FLIPR Antagonist Assay (HeLa Gα16 S1P1). The class given is cell-based. The note with it: relative antagonism of Ca2+ signal evoked by probing agonist GNF-AC-1 at EC80; HeLa-S1P1/Gα16 cells. How it is done:
Human S1P1 Receptor Calcium FLIPR Antagonist Assay
The cells are plated in 384 well black plates (10′000 cells per well). […] After washing, the cells are transferred to the FLIPR. The test compounds are added at different concentrations […]) in HBSS in the presence of 0.1% BSA and changes in fluorescence are recorded (indication of agonism). The probing agonist is added 20-30 minutes afterwards to the wells at a concentration giving 80% of the maximal activity (EC80). After each addition, time points are collected as follows: 20 time points (2 seconds) before the addition of the agonist (Fmin) and 60 time points (1 or 2 seconds) after the addition of the probing agonist. This allows the determination of the maximal fluorescence (Fmax). The ratio (Fmax-Fmin)/Fmin is plotted against the log of the concentration of the test compounds and the IC50 (relative antagonism) is calculated using the XLfit-4 software. […] A concentration-response curve of the probing agonist is determined on each plate in parallel.

T1 sequence (P21453 whole entry): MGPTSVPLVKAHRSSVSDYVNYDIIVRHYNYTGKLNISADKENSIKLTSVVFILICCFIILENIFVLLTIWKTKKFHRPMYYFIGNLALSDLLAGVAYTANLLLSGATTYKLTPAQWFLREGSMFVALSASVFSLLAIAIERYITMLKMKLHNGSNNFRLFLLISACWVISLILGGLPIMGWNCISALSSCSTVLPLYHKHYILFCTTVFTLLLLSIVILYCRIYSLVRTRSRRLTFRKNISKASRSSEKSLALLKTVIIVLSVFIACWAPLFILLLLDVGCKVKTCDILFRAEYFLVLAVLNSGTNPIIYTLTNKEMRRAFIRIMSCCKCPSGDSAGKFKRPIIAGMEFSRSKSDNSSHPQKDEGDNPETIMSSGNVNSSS

In the case of `Cc1cc(C(C)Nc2cccc(-c3cc(F)c(C(=O)N[C@@H](C)C(=O)O)c(F)c3)c2)ccc1Cl` (stereo partly drawn) [Example 50, (S)-2-({3′-[1-(4-Chloro-3-methyl-phenyl)-ethylamino]-3,5-difluoro-biphenyl-4-carbonyl}-amino)-propionic acid], the IC50 stood at 3 nM.
In the case of `Cc1cc(C(C)Nc2cccc(-c3cc(F)c(C(=O)N(C)[C@@H](C)C(=O)O)c(F)c3)c2)ccc1Cl` (stereo partly drawn) [Example 51, (S)-2-({3′-[1-(4-Chloro-3-methyl-phenyl)-ethylamino]-3,5-difluoro-biphenyl-4-carbonyl}-methyl-amino)-propionic acid] it was 6 nM; in that of `Cc1cc(C(C)Nc2cccc(-c3ccc(C(=O)N[C@@H](C)C(=O)O)c(Cl)c3)c2)cc(C)c1Cl` (stereo partly drawn) [Example 52, (S)-2-({3-Chloro-3′-[1-(4-chloro-3,5-dimethyl-phenyl)-ethylamino]-biphenyl-4-carbonyl}-amino)-propionic acid], 1 nM.
In the case of `Cc1cc(C(C)Nc2cccc(-c3ccc(C(=O)N(C)[C@@H](C)C(=O)O)c(Cl)c3)c2)cc(C)c1Cl` (stereo partly drawn) [Example 53, (S)-2-({3-Chloro-3′-[1-(4-chloro-3,5-dimethyl-phenyl)-ethylamino]-biphenyl-4-carbonyl}-methyl-amino)-propionic acid] it was 5 nM; in that of `Cc1cc(C(C)Nc2cccc(-c3ccc(C(=O)N(C)[C@@H](C)C(=O)O)c(F)c3)c2)cc(C)c1Cl` (stereo partly drawn) [Example 55, (S)-2-({3′-[1-(4-Chloro-3,5-dimethyl-phenyl)-ethylamino]-3-fluoro-biphenyl-4-carbonyl}-methyl-amino)-propionic acid], 9 nM.
As to `Cc1cc(C(C)Nc2cccc(-c3cc(F)c(C(=O)N[C@@H](C)C(=O)O)c(F)c3)c2)cc(C)c1Cl` (stereo partly drawn) [Example 56, (S)-2-({3′-[1-(4-Chloro-3,5-dimethyl-phenyl)-ethylamino]-3,5-difluoro-biphenyl-4-carbonyl}-amino)-propionic acid], the IC50 is 1 nM.
In the case of `Cc1cc(C(C)Nc2cccc(-c3cc(F)c(C(=O)N(C)[C@@H](C)C(=O)O)c(F)c3)c2)cc(C)c1Cl` (stereo partly drawn) [Example 57, (S)-2-({3′-[1-(4-Chloro-3,5-dimethyl-phenyl)-ethylamino]-3,5-difluoro-biphenyl-4-carbonyl}-methyl-amino)-propionic acid] it was 6 nM; in that of `CCC(Nc1cccc(-c2ccc(C(=O)N(C)[C@@H](C)C(=O)O)c(C)c2)c1)c1ccc(Cl)c(C)c1` (stereo partly drawn) [Example 58, (S)-2-({3′-[1-(4-Chloro-3-methyl-phenyl)-propylamino]-3-methyl-biphenyl-4-carbonyl}-methyl-amino)-propionic acid], 2 nM; in that of `Cc1cc(-c2cccc(NC(C)c3cc(C)c(Cl)c(C)c3)c2)ccc1C(=O)N(C)[C@@H](C)C(=O)O` (stereo partly drawn) [Example 59, (S)-2-({3′-[1-(4-Chloro-3,5-dimethyl-phenyl)-ethylamino]-3-methyl-biphenyl-4-carbonyl}-methyl-amino)-propionic acid], 3 nM.
In the case of `CCC(Nc1cccc(-c2ccc(C(=O)N[C@@H](C)C(=O)O)c(Cl)c2)c1)c1ccc(Cl)c(C)c1` (stereo partly drawn) [Example 60, (S)-2-({3-Chloro-3′-[1-(4-chloro-3-methyl-phenyl)-propylamino]-biphenyl-4-carbonyl}-amino)-propionic acid] it was 1 nM; in that of `CCC(Nc1cccc(-c2ccc(C(=O)N(C)[C@@H](C)C(=O)O)c(Cl)c2)c1)c1ccc(Cl)c(C)c1` (stereo partly drawn) [Example 61, (S)-2-({3-Chloro-3′-[1-(4-chloro-3-methyl-phenyl)-propylamino]-biphenyl-4-carbonyl}-methyl-amino)-propionic acid], 1 nM.
In the case of `Cc1cc(C(C)Nc2cccc(-c3ccc(C(=O)N[C@@H](C)C(=O)O)c(C(F)(F)F)c3)c2)ccc1Cl` (stereo partly drawn) [Example 62, (S)-2-({3′-[1-(4-Chloro-3-methyl-phenyl)-ethylamino]-3-trifluoromethyl-biphenyl-4-carbonyl}-amino)-propionic acid], the IC50 is 1 nM.
`Cc1cc(C(C)Nc2cccc(-c3ccc(C(=O)N(C)[C@@H](C)C(=O)O)c(C(F)(F)F)c3)c2)ccc1Cl` (stereo partly drawn) [Example 63, (S)-2-({3′-[1-(4-Chloro-3-methyl-phenyl)-ethylamino]-3-trifluoromethyl-biphenyl-4-carbonyl}-methyl-amino)-propionic acid]: the IC50 is 2 nM.
Turning to `Cc1cc(C(C)Nc2cccc(-c3ccc(C(=O)N[C@@H](C)C(=O)O)c(C(F)(F)F)c3)c2)cc(C)c1Cl` (stereo partly drawn) [Example 64, (S)-2-({3′-[1-(4-Chloro-3,5-dimethyl-phenyl)-ethylamino]-3-trifluoromethyl-biphenyl-4-carbonyl}-amino)-propionic acid], the IC50 worked out at 1 nM.
For `Cc1cc(C(C)Nc2cccc(-c3ccc(C(=O)N(C)[C@@H](C)C(=O)O)c(C(F)(F)F)c3)c2)cc(C)c1Cl` (stereo partly drawn) [Example 65, (S)-2-({3′-[1-(4-Chloro-3,5-dimethyl-phenyl)-ethylamino]-3-trifluoromethyl-biphenyl-4-carbonyl}-methyl-amino)-propionic acid] the value was 6 nM; for `CCC(Nc1cccc(-c2ccc(C(=O)N[C@@H](C)C(=O)O)c(C(F)(F)F)c2)c1)c1ccc(Cl)c(C)c1` (stereo partly drawn) [Example 66, (S)-2-({3′-[1-(4-Chloro-3-methyl-phenyl)-propylamino]-3-trifluoromethyl-biphenyl-4-carbonyl}-amino)-propionic acid], 3 nM; for `CCC(Nc1cccc(-c2ccc(C(=O)N(C)[C@@H](C)C(=O)O)c(C(F)(F)F)c2)c1)c1ccc(Cl)c(C)c1` (stereo partly drawn) [Example 67, (S)-2-({3′-[1-(4-Chloro-3-methyl-phenyl)-propylamino]-3-trifluoromethyl-biphenyl-4-carbonyl}-methyl-amino)-propionic acid], 3 nM.
In the case of `Cc1cc(C(C)Nc2cccc(-c3cc(C)c(C(=O)NCC(=O)O)c(C)c3)c2)ccc1Cl` (centres unmarked) [Example 68, ({3′-[1-(4-Chloro-3-methyl-phenyl)-ethylamino]-3,5-dimethyl-biphenyl-4-carbonyl}-amino)-acetic acid] it was 1 nM; in that of `COC[C@H](NC(=O)c1c(C)cc(-c2cccc(NC(C)c3ccc(Cl)c(C)c3)c2)cc1C)C(=O)O` (stereo partly drawn) [Example 69, (S)-2-({3′-[1-(4-Chloro-3-methyl-phenyl)-ethylamino]-3,5-dimethyl-biphenyl-4-carbonyl}-amino)-3-methoxy-propionic acid], 2 nM; in that of `Cc1cc(C(C)Nc2cccc(-c3cc(C)c(C(=O)N[C@@H](CCCCN)C(=O)O)c(C)c3)c2)ccc1Cl` (stereo partly drawn) [Example 70, (S)-6-Amino-2-({3′-[1-(4-chloro-3-methyl-phenyl)-ethylamino]-3,5-dimethyl-biphenyl-4-carbonyl}-amino)-hexanoic acid], 2 nM.
In the case of `Cc1cc(C(C)Nc2cccc(-c3cc(C)c(C(=O)NC4(C(=O)O)CCC4)c(C)c3)c2)ccc1Cl` (centres unmarked) [Example 72, 1-({3′-[1-(4-Chloro-3-methyl-phenyl)-ethylamino]-3,5-dimethyl-biphenyl-4-carbonyl}-amino)-cyclobutanecarboxylic acid] it was 2 nM; in that of `Cc1cc(C(C)Nc2cccc(-c3ccc(C(=O)N(C)[C@@H](C)C(=O)O)c(C)c3)c2)ccc1Cl` (some centres unmarked) [Example 76], 3 nM.
With `Cc1cc(-c2cccc(NC(C)c3ccc(Cl)c(Cl)c3)c2)ccc1C(=O)N(C)[C@@H](C)C(=O)O` (stereo partly drawn) [Example 78, (S)-2-({3′-[1-(3,4-Dichloro-phenyl)-ethylamino]-3-methyl-biphenyl-4-carbonyl}-methyl-amino)-propionic acid], the half-inhibitory concentration (IC50) came to 7 nM.
For `Cc1cc(C(C)Nc2cccc(-c3cc(C)c(C(=O)NC4(C(=O)O)CNC4)c(C)c3)c2)ccc1Cl` (centres unmarked) [Example 79, 3-({3′-[1-(4-Chloro-3-methyl-phenyl)-ethylamino]-3,5-dimethyl-biphenyl-4-carbonyl}-amino)-azetidine-3-carboxylic acid] the value was 2 nM.
For `Cc1cc(C(C)N(C)c2cccc(-c3cc(C)c(C(=O)N[C@@H](C)C(=O)O)c(C)c3)c2)ccc1Cl` (stereo partly drawn) [Example 80, (S)-2-[(3′-{[1-(4-Chloro-3-methyl-phenyl)-ethyl]-methyl-amino}-3,5-dimethyl-biphenyl-4-carbonyl)-amino]-propionic acid] the value was 4 nM; for `CCC(Nc1ccc(F)c(-c2ccc(C(=O)N(C)[C@@H](C)C(=O)O)c(C)c2)c1)c1ccc(Cl)c(C)c1` (stereo partly drawn) [Example 86, (S)-2-({5′-[1-(4-Chloro-3-methyl-phenyl)-propylamino]-2′-fluoro-3-methyl-biphenyl-4-carbonyl}-methyl-amino)-propionic acid], 6 nM; for `Cc1cc(C(C)Nc2ccc(F)c(-c3ccc(C(=O)N(C)[C@@H](C)C(=O)O)c(Cl)c3)c2)ccc1Cl` (stereo partly drawn) [Example 87, (S)-2-({3-Chloro-5′-[1-(4-chloro-3-methyl-phenyl)-ethylamino]-2′-fluoro-biphenyl-4-carbonyl}-methyl-amino)-propionic acid], 4 nM.
Turning to `CCC(Nc1ccc(F)c(-c2ccc(C(=O)N(C)[C@@H](C)C(=O)O)c(Cl)c2)c1)c1ccc(Cl)c(C)c1` (some centres unmarked) [Example 88], the IC50 stood at 5 nM.
For the compound `CCC(Nc1ccc(F)c(-c2ccc(C(=O)N(C)[C@@H](C)C(=O)O)c(C(F)(F)F)c2)c1)c1ccc(Cl)c(C)c1` (stereo partly drawn) [Example 89, (S)-2-({5′-[1-(4-Chloro-3-methyl-phenyl)-propylamino]-2′-fluoro-3-trifluoromethyl-biphenyl-4-carbonyl}-methyl-amino)-propionic acid], the IC50 is 13 nM.
